Data set [1] has as its system K562. In words: Cell cycle arrest in human K562 cells as assessed as accumulation at G2/M phase at 1 uM after 48 hrs by propidium iodide staining-based flow cytometric analysis relative to control. The data set is classed as functional.
Data set [2] has as its system BJ. The data set can be described thus: Antiproliferative activity against human BJ cells after 72 hrs by PrestoBlue colorimetric assay. The data set is classed as cell-based.
The test system of data set [3] is SW-620. In words: Antiadhesive activity against human SW620 cells at 5 uM after 2 to 24 hrs by crystal-violet staining-based microscopic analysis. Format: functional, cell-based.
The subject of data set [4] is SW-620. The data set can be described thus: Cell cycle arrest in human SW620 cells as assessed as accumulation at G2/M phase at 0.1 uM after 24 hrs by propidium iodide staining-based flow cytometric analysis relative to control. Format: functional.
Data set [5] deals with SW-620. The data set can be described thus: Cell cycle arrest in human SW620 cells as assessed as accumulation at G2/M phase at 1 uM after 48 hrs by propidium iodide staining-based flow cytometric analysis relative to control. Format: functional.
Data set [6] relates to WI-38. The data set can be described thus: Cell cycle arrest in human WI38 cells as assessed as accumulation at G2/M phase at 0.1 uM after 24 hrs by propidium iodide staining-based flow cytometric analysis relative to control. The following applies: wi-38, 24 h.
Data set [7] deals with WI-38. The data set can be described thus: Cell cycle arrest in human WI38 cells as assessed as accumulation at G1 phase at 1 uM after 24 hrs by propidium iodide staining-based flow cytometric analysis relative to control. The conditions noted are these: wi-38, 24 h.
Data set [8] relates to WI-38. The data set can be described thus: Cell cycle arrest in human WI38 cells as assessed as accumulation at S phase at 1 uM after 24 hrs by propidium iodide staining-based flow cytometric analysis relative to control. The conditions noted are these: wi-38, 24 h.
Data set [9] deals with MCF7. The data set can be described thus: Cell cycle arrest in human MCF7 cells as assessed as accumulation at G1 phase at 0.1 uM after 24 hrs by propidium iodide staining-based flow cytometric analysis relative to control. The data set is classed as functional.
Data set [10] concerns K562. The data set can be described thus: Cell cycle arrest in human K562 cells as assessed as accumulation at S phase at 0.1 uM after 24 hrs by propidium iodide staining-based flow cytometric analysis relative to control. The data set is classed as functional.
The subject of data set [11] is K562. In words: Cell cycle arrest in human K562 cells as assessed as accumulation at sub-G1 phase at 1 uM after 24 hrs by propidium iodide staining-based flow cytometric analysis relative to control. Format: functional.

Calls of active or inactive are those of the source. The rule behind the calls is not given here.

Regarding `COCn1c(CC(COCc2ccccc2)COCc2ccccc2)c(C)c(=O)n(COC)c1=O`, the Activity in data set [1] came out at 17.4%; in data set [4], 21.7%; in data set [5], 15.8%; in data set [6], 6.9%; in [7], 70.1%; in data set [8], 2.4%. For the same compound, the Activity in data set [9] is on record as 25.5%; in data set [10], 28.6%; in [11], 3.1%. Besides, in data set [2], the midpoint of inhibition, the IC50, lay at 5.3 µM. For the same compound, the outcome in [3] was Active.

The values are drawn from ChEMBL document CHEMBL3286303, “Synthesis and in vitro antiproliferative evaluation of novel N-alkylated 6-isobutyl- and propyl pyrimidine derivatives” (Bioorg Med Chem Lett, 2014).
